Article PMC10380083, “Synthesis of Prostate-Specific Membrane Antigen-Targeted Bimodal Conjugates of Cytotoxic Agents and Antiandrogens and Their Comparative Assessment with Monoconjugates” (International Journal of Molecular Sciences, 2023)
*1 amine or outer side, *2 acyl side, *3 side chain or, on linkers, in order; H or OH if unused. Where a SMILES comes first, the peptide text is derived from it. [ ]: non-standard residue; d: D form. The star is where a group is joined. GluureaLys(ε-3-ClBenzyl) = O=C(O)CC[C@H](NC(=O)N[C@@H](CCCCN(Cc1cccc(Cl)c1)*)C(=O)O)C(=O)O; X5 = O=C(O)CC[C@H](NC(=O)N[C@@H](CCCCN(Cc1ccc(C(=O)O)cc1)*)C(=O)O)C(=O)O; X6 = O=C(O)CC[C@H](NC(=O)N[C@@H](CCCCN(Cc1ccc(Br)cc1)*)C(=O)O)C(=O)O; Dolaproine = CO[C@@H]([C@@H]1CCCN1)[C@@H](C)C(=O)O; Dil = CC[C@H](C)[C@H](NC)[C@@H](CC(=O)O)OC; X2 = O=C(CCCc1cn(CCCN[*:1])nn1)[*:2]; PABC = O=C(OCc1ccc(N[*:1])cc1)[*:2]; X1 = C[C@@H](N*)[C@@H](O)c1ccccc1; Cit = NC(=O)NCCC[C@H](N)C(=O)O; Suc = O=C(CCC(=O)[*:2])[*:1]; NMeV = CN[C@H](C(=O)O)C(C)C; Ahx = NCCCCCC(=O)O

Experiments:
[1] = target: T1, PSMA (glutamate carboxypeptidase II, GCPII) (Homo sapiens, UniProt Q04609); experiment: Inhibition of the NAAG cleavage reaction (affinity to PSMA), LNCaP cell extract; type: biochemical; conditions: SD
T1 construct: endogenous in cells; host or cells: LNCaP cells (Triton X-100 lysate, sonicated, supernatant after 1000g)
T1 sequence (Q04609 whole entry): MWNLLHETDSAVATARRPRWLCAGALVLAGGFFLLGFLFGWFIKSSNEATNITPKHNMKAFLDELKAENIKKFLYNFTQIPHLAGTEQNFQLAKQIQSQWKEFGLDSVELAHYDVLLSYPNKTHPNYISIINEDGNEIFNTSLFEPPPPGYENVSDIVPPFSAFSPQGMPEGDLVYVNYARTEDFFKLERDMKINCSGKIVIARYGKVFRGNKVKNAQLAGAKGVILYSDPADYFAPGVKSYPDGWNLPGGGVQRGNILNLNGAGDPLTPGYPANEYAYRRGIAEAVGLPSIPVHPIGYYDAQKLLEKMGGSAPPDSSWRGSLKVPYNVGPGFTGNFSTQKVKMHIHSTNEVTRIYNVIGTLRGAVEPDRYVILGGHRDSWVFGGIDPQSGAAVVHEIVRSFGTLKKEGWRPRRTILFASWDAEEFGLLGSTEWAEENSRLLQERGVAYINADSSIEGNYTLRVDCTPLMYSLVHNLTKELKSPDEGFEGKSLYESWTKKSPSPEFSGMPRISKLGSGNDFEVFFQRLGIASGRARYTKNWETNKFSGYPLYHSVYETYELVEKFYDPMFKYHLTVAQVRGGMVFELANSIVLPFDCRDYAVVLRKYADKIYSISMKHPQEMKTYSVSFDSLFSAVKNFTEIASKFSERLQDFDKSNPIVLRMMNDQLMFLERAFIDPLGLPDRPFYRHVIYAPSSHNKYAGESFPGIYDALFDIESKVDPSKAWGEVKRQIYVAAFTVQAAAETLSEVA
Experimental: The affinity of the four newly obtained ligands to PSMA was evaluated in vitro by inhibiting the cleavage of N-acetylaspartylglutamic acid (NAAG). One function of PSMA, also known as glutamate carboxypeptidase II (GCPII), is the cleavage of NAAG into N-acetylaspartate and glutamate. PSMA-specific ligands inhibit this reaction by interacting with the protein. Thus, the calculation of the values of half-maximum inhibition (IC50) allows evaluation of the binding efficiency of the synthesized compounds to the protein. The analogues of the obtained ligands 6a–d without a lysine residue in their structure were chosen as comparison ligands. Also, some ligands previously described in the literature were chosen as references.
LNCaP cells were cultured in RPMI medium with 10% FBS (Gibco, Billings, MT, USA), 1xGlutamax (Gibco) and 1x penicillin-streptomycin mixture (Gibco, USA). To suspend the cells, growth medium was removed from the 25 cm^2 vial, the cells were washed with PBS buffer and incubated for 5 min with 0.25% trypsin (1 mL). Trypsin was inactivated with complete growth medium (2 mL), washed with PBS, transferred 10^6 cells to a test tube, and 500 μL of lysis buffer (0.5% Triton X-100, 50 mM Tris-HCl (pH 7.5) and 1× Proteinase Inhibition cocktail) was added. The suspension was incubated for 30 min on ice and sonicated (seven times 7 sec at 20–30 s intervals) on ice to avoid overheating. The suspension was centrifuged for 10 min at 1000g at 4 °C, and the supernatant was used in further analysis.
The inhibition by PSMA ligands was analyzed using a non-radioactive protocol with detection of the glutamate released during the reaction. LNCaP cell line extract (10 μL) was mixed with 2 μL of the appropriate compound preparation. A series of dilutions of 2 nM-100 μM compounds was used for initial testing, with dilution steps of 3–5 times. To the resulting mixture, 1 μL of 100 μM NAAG solution was added. The mixture was incubated for 2 h at 37 °C. After incubation, the mixture was doubled with reaction buffer (13 μL) from the Amplex Red Glutamic Acid Kit (Molecular Probes Inc., Eugene, OR, USA), and the multi-component glutamate detection reaction mixture prepared according to the manufacturer’s protocol (26 μL) was added. Amplex Red stock solution: 5 μL Amplex® Red reagent stock solution, 1.25 μL HRP stock solution, 8 μL L-glutamate oxidase, 2.5 μL L-glutamate pyruvate transaminase, 0.5 μL L-alanine, 483 μL 1× reaction buffer. Incubation was performed for 1 h at 37 °C. The fluorescence of resorufin produced by conjugated glutamate detection kit reactions was detected on a VICTORX5 multidetector plate (Perkin Elmer Inc., Waltham, MA, USA) at an excitation length of 555 nm and detection at 580 nm. As a control for endogenous glutamate levels with replacement of the NAAG solution with water.

PC-3 cells = experiment: In vitro cytotoxicity, MTS assay, PC-3; type: cell-based, human; conditions: 72 h, extremely low PSMA expression, range 0.5 to 800 nM, triplicates
Experimental: (§1) The resulting bimodal conjugates were tested in vitro on three different PCa cell lines. We used LNCaP cells with high PSMA expression, 22Rv1 cells with moderate PSMA expression and PC-3 cells with extremely low PSMA expression. Different levels of PSMA expression in 22Rv1 and LNCaP cell lines allows evaluation of the effect of the level of expression on the toxicity of the target drugs. PSMA-negative cell line PC-3 allows a qualitative assessment of non-specific toxicity of the obtained compounds.
(§2) The cytotoxicity of the investigated substances was tested using the MTS assay with some modifications. Cells were seeded in the 96-well plates (Corning, New York, NY, USA) at concentration of 7000 cells per well for PC-3 culture, 12,000 cells per well for LNCaP cells and 20,000 cells per well for 22Rv1 line. The cells were counted using the automatic cell counter EVE. All cell lines were purchased from the American Type Culture Collection (ATCC, Manassas, VA, USA). After 1 day, serial dilutions of tested substances were added to the cells. Cell culture medium with addition of DMSO in appropriate concentrations was used as a negative control. DMSO (30%) was added in culture medium as a positive control. Cells were then incubated during 72 h at 37 °C and 5% CO2. Later, the culture medium from each well was removed and 20 μL of MTS reagent (CellTiter 96 AQueous Non-Radioactive Cell Proliferation Assay, Promega) were added to each well with 100 μL of new culture medium. After 4 h incubation at 37 °C in darkness, the absorbance of the solution was measured at 490 nm wavelength using Thermo Scientific Multiskan GO spectrometer. Cell viability was calculated as a percentage compared to control cells. The absorbance of MTS reagent in culture medium without cells was taken as zero. […] Experiments were performed in triplicates. Data were analyzed using Prism 9—GraphPad version 9.2.0 software. p values < 0.05 were considered significant.

LNCaP cells = experiment: In vitro cytotoxicity, MTS assay, LNCaP; type: cell-based; conditions: 72 h, high PSMA expression, range 0.5 to 800 nM, triplicates
Experimental: as §1, §2

22Rv1 cells = experiment: In vitro cytotoxicity, MTS assay, 22Rv1; type: cell-based, human; conditions: 72 h, moderate PSMA expression, range 0.5 to 800 nM, triplicates
Experimental: as §1, §2

[2] = inhibition of NAAG cleavage, LNCaP cell extract, 2 h at 37 °C, glutamate detected with Amplex Red kit (fluorescence)

Row | Compound | IC50 [1] [nM] | IC50 [1, 2] [nM] | CC50, PC-3 (PC-3 cells) [nM] | CC50, LNCaP (LNCaP cells) [nM] | CC50, 22Rv1 (22Rv1 cells) [nM]
1 | [N-]=[N+]=NCCCNC(=O)[C@H](CCCCN)NC(=O)[C@H](Cc1ccc(O)cc1)NC(=O)[C@H](Cc1ccccc1)NC(=O)CCC(=O)NCCCCCC(=O)N(CCCC[C@H](NC(=O)N[C@@H](CCC(=O)O)C(=O)O)C(=O)O)Cc1cccc(Cl)c1 [6a, (3S,7S,25S,28S,31S)-31-(4-aminobutyl)-36-azido-25-benzyl-12-(3-chlorobenzyl)-28-(4-hydroxybenzyl)-5,13,20,23,26,29,32-heptaoxo-4,6,12,19,24,27,30,33-octaazahexatriacontane-1,3,7-tricarboxylic acid] | 13 ± 3 | – | – | – | –
2 | [N-]=[N+]=NCCCNC(=O)[C@H](CCCCN)NC(=O)[C@H](Cc1ccc(O)cc1)NC(=O)[C@H](Cc1ccccc1)NC(=O)CCC(=O)NCCCCCC(=O)N(CCCC[C@H](NC(=O)N[C@@H](CCC(=O)O)C(=O)O)C(=O)O)Cc1ccc(Br)cc1 [6b, (3S,7S,25S,28S,31S)-31-(4-aminobutyl)-36-azido-25-benzyl-12-(4-bromobenzyl)-28-(4-hydroxybenzyl)-5,13,20,23,26,29,32-heptaoxo-4,6,12,19,24,27,30,33-octaazahexatriacontane-1,3,7-tricarboxylic acid] | 11 ± 2 | – | – | – | –
3 | [N-]=[N+]=NCCCNC(=O)[C@H](CCCCN)NC(=O)[C@H](Cc1ccc(O)cc1)NC(=O)[C@H](Cc1ccccc1)NC(=O)CCC(=O)NCCCCCC(=O)N(CCCC[C@H](NC(=O)N[C@@H](CCC(=O)O)C(=O)O)C(=O)O)Cc1ccc(C(=O)O)cc1 [6c, (3S,7S,25S,28S,31S)-31-(4-aminobutyl)-36-azido-25-benzyl-12-(4-carboxybenzyl)-28-(4-hydroxybenzyl)-5,13,20,23,26,29,32-heptaoxo-4,6,12,19,24,27,30,33-octaazahexatriacontane-1,3,7-tricarboxylic acid] | – | 10 ± 3 | – | – | –
4 | [N-]=[N+]=NCCCNC(=O)[C@H](CCCCN)NC(=O)[C@H](Cc1ccccc1)NC(=O)[C@H](Cc1ccccc1)NC(=O)CCC(=O)NCCCCCC(=O)N(CCCC[C@H](NC(=O)N[C@@H](CCC(=O)O)C(=O)O)C(=O)O)Cc1ccc(C(=O)O)cc1 [6d, (3S,7S,25S,28S,31S)-31-(4-aminobutyl)-36-azido-25,28-dibenzyl-12-(4-carboxybenzyl)-5,13,20,23,26,29,32-heptaoxo-4,6,12,19,24,27,30,33-octaazahexatriacontane-1,3,7-tricarboxylic acid] | – | 5.5 ± 1.7 | – | – | –
5 | CC[C@H](C)[C@@H]([C@@H](CC(=O)N1CCC[C@H]1[C@H](OC)[C@@H](C)C(=O)N[C@H](C)[C@@H](O)c1ccccc1)OC)N(C)C(=O)[C@@H](NC(=O)[C@H](C(C)C)N(C)C(=O)OCc1ccc(NC(=O)[C@H](CCCNC(N)=O)NC(=O)[C@@H](NC(=O)CCCc2cn(CCCNC(=O)[C@H](CCCCN)NC(=O)[C@H](Cc3ccc(O)cc3)NC(=O)[C@H](Cc3ccccc3)NC(=O)CCC(=O)NCCCCCC(=O)N(CCCC[C@H](NC(=O)N[C@@H](CCC(=O)O)C(=O)O)C(=O)O)Cc3cccc(Cl)c3)nn2)C(C)C)cc1)C(C)C [12a] ({GluureaLys(ε-3-ClBenzyl)-Ahx-Suc}-FYK[X2]V[Cit][PABC][NMeV]V[Dil][Dolaproine]-X1) | – | – | >800 | 157.4 ± 2.0 | 267.9 ± 3.8
6 | CC[C@H](C)[C@@H]([C@@H](CC(=O)N1CCC[C@H]1[C@H](OC)[C@@H](C)C(=O)N[C@H](C)[C@@H](O)c1ccccc1)OC)N(C)C(=O)[C@@H](NC(=O)[C@H](C(C)C)N(C)C(=O)OCc1ccc(NC(=O)[C@H](CCCNC(N)=O)NC(=O)[C@@H](NC(=O)CCCc2cn(CCCNC(=O)[C@H](CCCCN)NC(=O)[C@H](Cc3ccc(O)cc3)NC(=O)[C@H](Cc3ccccc3)NC(=O)CCC(=O)NCCCCCC(=O)N(CCCC[C@H](NC(=O)N[C@@H](CCC(=O)O)C(=O)O)C(=O)O)Cc3ccc(Br)cc3)nn2)C(C)C)cc1)C(C)C [12b] ({X6-Ahx-Suc}-FYK[X2]V[Cit][PABC][NMeV]V[Dil][Dolaproine]-X1) | – | – | >800 | 182.6 ± 2.2 | 247.8 ± 3.3
7 | CC[C@H](C)[C@@H]([C@@H](CC(=O)N1CCC[C@H]1[C@H](OC)[C@@H](C)C(=O)N[C@H](C)[C@@H](O)c1ccccc1)OC)N(C)C(=O)[C@@H](NC(=O)[C@H](C(C)C)N(C)C(=O)OCc1ccc(NC(=O)[C@H](CCCNC(N)=O)NC(=O)[C@@H](NC(=O)CCCc2cn(CCCNC(=O)[C@H](CCCCN)NC(=O)[C@H](Cc3ccc(O)cc3)NC(=O)[C@H](Cc3ccccc3)NC(=O)CCC(=O)NCCCCCC(=O)N(CCCC[C@H](NC(=O)N[C@@H](CCC(=O)O)C(=O)O)C(=O)O)Cc3ccc(C(=O)O)cc3)nn2)C(C)C)cc1)C(C)C [12c] ({X5-Ahx-Suc}-FYK[X2]V[Cit][PABC][NMeV]V[Dil][Dolaproine]-X1) | – | – | >800 | 177.8 ± 2.2 | 453.7 ± 9.8
8 | CC[C@H](C)[C@@H]([C@@H](CC(=O)N1CCC[C@H]1[C@H](OC)[C@@H](C)C(=O)N[C@H](C)[C@@H](O)c1ccccc1)OC)N(C)C(=O)[C@@H](NC(=O)[C@H](C(C)C)N(C)C(=O)OCc1ccc(NC(=O)[C@H](CCCNC(N)=O)NC(=O)[C@@H](NC(=O)CCCc2cn(CCCNC(=O)[C@H](CCCCN)NC(=O)[C@H](Cc3ccccc3)NC(=O)[C@H](Cc3ccccc3)NC(=O)CCC(=O)NCCCCCC(=O)N(CCCC[C@H](NC(=O)N[C@@H](CCC(=O)O)C(=O)O)C(=O)O)Cc3ccc(C(=O)O)cc3)nn2)C(C)C)cc1)C(C)C [12d] ({X5-Ahx-Suc}-FFK[X2]V[Cit][PABC][NMeV]V[Dil][Dolaproine]-X1) | – | – | >800 | 197.8 ± 2.7 | 463.3 ± 8.0
9 | NCCCC[C@H](NC(=O)N[C@@H](CCC(=O)O)C(=O)O)C(=O)O [DCL, (S)-2-(3-((S)-5-amino-1-carboxypentyl)ureido)pentanedioic acid, reference compound] | – | 547 ± 389 | – | – | –
10 | C[C@]12CC[C@H](OC(=O)CCCc3cn(CCCNC(=O)[C@H](Cc4ccc(O)cc4)NC(=O)[C@H](Cc4ccccc4)NC(=O)CCC(=O)NCCCCCC(=O)N(CCCC[C@H](NC(=O)N[C@@H](CCC(=O)O)C(=O)O)C(=O)O)Cc4cccc(Cl)c4)nn3)CC1=CC[C@@H]1[C@@H]2CC[C@]2(C)C(c3cccnc3)=CC[C@@H]12 [II, reference compound] | – | – | >800 | >800 | >800
